{"source": "ChEMBL document CHEMBL1201862", "about": "“PubChem BioAssay data set” (2004)", "assay_in_all_cases": "inhibition of tumour cell growth, NCI panel, 48 h", "key": {"A549": {"tested_on": "A549"}, "ACHN": {"tested_on": "ACHN"}, "CAKI-1": {"tested_on": "CAKI-1"}, "COLO 205": {"tested_on": "COLO 205"}, "HOP-18": {"tested_on": "HOP-18"}, "HT-29": {"tested_on": "HT-29"}, "K562": {"tested_on": "K562"}, "KM12": {"tested_on": "KM12"}, "Malme-3M": {"tested_on": "Malme-3M"}, "NCI-H522": {"tested_on": "NCI-H522"}, "RXF 393": {"tested_on": "RXF 393"}, "TK-10": {"tested_on": "TK-10"}, "UO-31": {"tested_on": "UO-31"}, "HCC 2998": {"tested_on": "HCC 2998"}, "SNB-19": {"tested_on": "SNB-19"}, "DU-145": {"tested_on": "DU-145"}, "Hs-578T": {"tested_on": "Hs-578T"}, "MCF7": {"tested_on": "MCF7"}, "SR": {"tested_on": "SR"}, "T47D": {"tested_on": "T47D"}}, "note": "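Step 1: Grow cells in 96-well plates. Step 2: Expose to compound for 48 hours at 5 concentrations. Step 3: Interpolate endpoints linearly; if unreached, use highest concentration. GI50 marks 50% less growth.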 Calls of active or inactive are those of the source. Rule as the data show it: active = GI50 up to about 1.1 µM and inactive = higher. *1 amine or outer side, *2 acyl side, *3 side chain or, on linkers, in order; H or OH if unused. Where a SMILES comes first, the peptide text is derived from it. Bridges are numbered along the chain shown (N, C = ends). Roman numbers before positions name the chains, in order. [ ]: non-standard residue; d: D form. Actinocin(1to9) = Cc1c2oc3c(C)ccc(C(=O)[*:2])c3nc-2c(C(=O)[*:1])c(N)c1=O; NMeV = CN[CH](C(=O)O)C(C)C; Sar = CNCC(=O)O", "data": [{"compound": "Nc1ccn(CCOC(=O)c2ccccc2)c(=O)n1", "values": [{"measurement": "GI50", "setting": "A549", "value": "> 100 µM (inactive)"}, {"measurement": "GI50", "setting": "ACHN", "value": "> 100 µM (inactive)"}, {"measurement": "GI50", "setting": "CAKI-1", "value": "> 100 µM (inactive)"}, {"measurement": "GI50", "setting": "COLO 205", "value": "> 100 µM (inactive)"}, {"measurement": "GI50", "setting": "HOP-18", "value": "> 100 µM (inactive)"}, {"measurement": "GI50", "setting": "HT-29", "value": "> 100 µM (inactive)"}, {"measurement": "GI50", "setting": "K562", "value": "> 100 µM (inactive)"}, {"measurement": "GI50", "setting": "KM12", "value": "> 100 µM (inactive)"}, {"measurement": "GI50", "setting": "Malme-3M", "value": "> 100 µM (inactive)"}, {"measurement": "GI50", "setting": "NCI-H522", "value": "> 100 µM (inactive)"}, {"measurement": "GI50", "setting": "RXF 393", "value": "> 100 µM (inactive)"}, {"measurement": "GI50", "setting": "TK-10", "value": "> 100 µM (inactive)"}, {"measurement": "GI50", "setting": "UO-31", "value": "> 100 µM (inactive)"}]}, {"compound": "OCCc1cnco1", "values": [{"measurement": "GI50", "setting": "A549", "value": "> 100 µM (inactive)"}, {"measurement": "GI50", "setting": "COLO 205", "value": "> 100 µM (inactive)"}, {"measurement": "GI50", "setting": "HCC 2998", "value": "> 100 µM (inactive)"}, {"measurement": "GI50", "setting": "HOP-18", "value": "> 100 µM (inactive)"}, {"measurement": "GI50", "setting": "HT-29", "value": "> 100 µM (inactive)"}, {"measurement": "GI50", "setting": "K562", "value": "> 100 µM (inactive)"}, {"measurement": "GI50", "setting": "KM12", "value": "> 100 µM (inactive)"}, {"measurement": "GI50", "setting": "NCI-H522", "value": "> 100 µM (inactive)"}, {"measurement": "GI50", "setting": "RXF 393", "value": "> 100 µM (inactive)"}, {"measurement": "GI50", "setting": "SNB-19", "value": "> 100 µM (inactive)"}, {"measurement": "GI50", "setting": "TK-10", "value": "> 100 µM (inactive)"}]}, {"compound": "O=C(O)CNc1c2ccccc2[n+]([O-])c2ccccc12", "values": [{"measurement": "GI50", "setting": "A549", "value": "> 100 µM (inactive)"}, {"measurement": "GI50", "setting": "ACHN", "value": "65.5 µM (inactive)"}, {"measurement": "GI50", "setting": "CAKI-1", "value": "> 100 µM (inactive)"}, {"measurement": "GI50", "setting": "COLO 205", "value": "72.3 µM (inactive)"}, {"measurement": "GI50", "setting": "HCC 2998", "value": "> 100 µM (inactive)"}, {"measurement": "GI50", "setting": "HOP-18", "value": "36.1 µM (inactive)"}, {"measurement": "GI50", "setting": "HT-29", "value": "> 100 µM (inactive)"}, {"measurement": "GI50", "setting": "K562", "value": "13.9 µM (inactive)"}, {"measurement": "GI50", "setting": "KM12", "value": "> 100 µM (inactive)"}, {"measurement": "GI50", "setting": "Malme-3M", "value": "61.4 µM (inactive)"}, {"measurement": "GI50", "setting": "NCI-H522", "value": "50.1 µM (inactive)"}, {"measurement": "GI50", "setting": "SNB-19", "value": "> 100 µM (inactive)"}, {"measurement": "GI50", "setting": "TK-10", "value": "> 100 µM (inactive)"}, {"measurement": "GI50", "setting": "UO-31", "value": "43.4 µM (inactive)"}]}, {"compound": "Cc1cccc(-c2cc(O)c3cc(C)cnc3n2)c1", "values": [{"measurement": "GI50", "setting": "A549", "value": "0.279 µM (active)"}, {"measurement": "GI50", "setting": "ACHN", "value": "0.532 µM (active)"}, {"measurement": "GI50", "setting": "CAKI-1", "value": "0.199 µM (active)"}, {"measurement": "GI50", "setting": "COLO 205", "value": "0.105 µM (active)"}, {"measurement": "GI50", "setting": "DU-145", "value": "0.279 µM (active)"}, {"measurement": "GI50", "setting": "HCC 2998", "value": "0.44 µM (active)"}, {"measurement": "GI50", "setting": "HT-29", "value": "0.15 µM (active)"}, {"measurement": "GI50", "setting": "Hs-578T", "value": "0.244 µM (active)"}, {"measurement": "GI50", "setting": "K562", "value": "0.0411 µM (active)"}, {"measurement": "GI50", "setting": "KM12", "value": "0.0869 µM (active)"}, {"measurement": "GI50", "setting": "MCF7", "value": "0.305 µM (active)"}, {"measurement": "GI50", "setting": "Malme-3M", "value": "0.111 µM (active)"}, {"measurement": "GI50", "setting": "NCI-H522", "value": "0.0955 µM (active)"}, {"measurement": "GI50", "setting": "RXF 393", "value": "0.229 µM (active)"}, {"measurement": "GI50", "setting": "SNB-19", "value": "0.366 µM (active)"}, {"measurement": "GI50", "setting": "SR", "value": "0.0368 µM (active)"}, {"measurement": "GI50", "setting": "T47D", "value": "6.5 µM (inactive)"}, {"measurement": "GI50", "setting": "TK-10", "value": "5.52 µM (inactive)"}, {"measurement": "GI50", "setting": "UO-31", "value": "0.745 µM (active)"}]}, {"compound": "CCC(C)C1NC(=O)C(NC(=O)c2c3nc4c(C(=O)NC5C(=O)NC(C(C)C)C(=O)N6CCCC6C(=O)N(C)CC(=O)N(C)C(C(C)C)C(=O)OC5C)ccc(C)c4oc-3c(C)c(=O)c2N)C(C)OC(=O)C(C(C)C)N(C)C(=O)CN(C)C(=O)C2CCCN2C1=O", "note": "(stereo not given) (I: TIP[Sar][NMeV] / II: TVP[Sar][NMeV]; ester I:1-I:C, II:1-II:C; linker I:N-II:N via Actinocin(1to9); configuration not given here)", "values": [{"measurement": "GI50", "setting": "A549", "value": "0.000431 µM (active)"}, {"measurement": "GI50", "setting": "ACHN", "value": "0.000647 µM (active)"}, {"measurement": "GI50", "setting": "CAKI-1", "value": "0.00378 µM (active)"}, {"measurement": "GI50", "setting": "COLO 205", "value": "< 0.0001 µM (active)"}, {"measurement": "GI50", "setting": "DU-145", "value": "0.00475 µM (active)"}, {"measurement": "GI50", "setting": "HCC 2998", "value": "0.237 µM (active)"}, {"measurement": "GI50", "setting": "HT-29", "value": "< 0.0001 µM (active)"}, {"measurement": "GI50", "setting": "Hs-578T", "value": "0.00546 µM (active)"}, {"measurement": "GI50", "setting": "K562", "value": "< 0.0001 µM (active)"}, {"measurement": "GI50", "setting": "KM12", "value": "0.00016 µM (active)"}, {"measurement": "GI50", "setting": "MCF7", "value": "< 0.0001 µM (active)"}, {"measurement": "GI50", "setting": "Malme-3M", "value": "0.000689 µM (active)"}, {"measurement": "GI50", "setting": "NCI-H522", "value": "< 0.0001 µM (active)"}, {"measurement": "GI50", "setting": "RXF 393", "value": "0.01 µM (active)"}, {"measurement": "GI50", "setting": "SNB-19", "value": "< 0.0001 µM (active)"}, {"measurement": "GI50", "setting": "SR", "value": "0.000244 µM (active)"}, {"measurement": "GI50", "setting": "T47D", "value": "0.00183 µM (active)"}, {"measurement": "GI50", "setting": "TK-10", "value": "0.0137 µM (active)"}, {"measurement": "GI50", "setting": "UO-31", "value": "0.0787 µM (active)"}]}, {"compound": "O=[N+]([O-])c1nccn1CC(O)CN1CCCCC1", "note": "(stereo not given) [PIMONIDAZOLE]", "values": [{"measurement": "GI50", "setting": "A549", "value": "> 100 µM (inactive)"}, {"measurement": "GI50", "setting": "ACHN", "value": "> 100 µM (inactive)"}, {"measurement": "GI50", "setting": "CAKI-1", "value": "> 100 µM (inactive)"}, {"measurement": "GI50", "setting": "COLO 205", "value": "> 100 µM (inactive)"}, {"measurement": "GI50", "setting": "DU-145", "value": "> 100 µM (inactive)"}, {"measurement": "GI50", "setting": "HCC 2998", "value": "> 100 µM (inactive)"}, {"measurement": "GI50", "setting": "HT-29", "value": "> 100 µM (inactive)"}, {"measurement": "GI50", "setting": "Hs-578T", "value": "> 100 µM (inactive)"}, {"measurement": "GI50", "setting": "K562", "value": "> 100 µM (inactive)"}, {"measurement": "GI50", "setting": "KM12", "value": "> 100 µM (inactive)"}, {"measurement": "GI50", "setting": "MCF7", "value": "> 100 µM (inactive)"}, {"measurement": "GI50", "setting": "Malme-3M", "value": "> 100 µM (inactive)"}, {"measurement": "GI50", "setting": "NCI-H522", "value": "> 100 µM (inactive)"}, {"measurement": "GI50", "setting": "RXF 393", "value": "> 100 µM (inactive)"}, {"measurement": "GI50", "setting": "SNB-19", "value": "> 100 µM (inactive)"}, {"measurement": "GI50", "setting": "SR", "value": "> 100 µM (inactive)"}, {"measurement": "GI50", "setting": "T47D", "value": "> 100 µM (inactive)"}, {"measurement": "GI50", "setting": "TK-10", "value": "> 100 µM (inactive)"}, {"measurement": "GI50", "setting": "UO-31", "value": "> 100 µM (inactive)"}]}]}
